Assay results taken from patent US5436260A, “Angiotensin II receptor antagonists” (Warner-Lambert Company, priority 1994, dated 1995).
Where a name gives a salt, the structure may show the parent alone.

Biological target: T1, AT1 receptor (Rattus norvegicus, UniProt P25095)
T1 construct: rat liver membranes; from tissue; host or cells: rat liver membranes
T1 sequence (P25095 1-359): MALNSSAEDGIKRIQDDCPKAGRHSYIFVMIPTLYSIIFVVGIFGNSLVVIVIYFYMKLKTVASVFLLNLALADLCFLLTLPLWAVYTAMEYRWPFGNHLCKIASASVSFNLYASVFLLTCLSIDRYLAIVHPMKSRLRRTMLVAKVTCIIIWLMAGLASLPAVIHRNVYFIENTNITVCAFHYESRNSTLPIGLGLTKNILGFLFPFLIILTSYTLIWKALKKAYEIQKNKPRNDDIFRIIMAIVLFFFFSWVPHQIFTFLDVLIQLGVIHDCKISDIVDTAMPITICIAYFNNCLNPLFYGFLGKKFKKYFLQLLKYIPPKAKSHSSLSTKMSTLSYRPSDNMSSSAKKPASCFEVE
Experiment: [^3 H]angiotensin II binding to rat liver membranes (AT1 test)
Conditions: inhibition of [^3 H]angiotensin II binding
Description: The compounds of Formula I or Ia are antagonists of angiotensin II. Dudley, D. T., et al, Molecular Pharmacology 1990;38:370-377 reported the existence of 2 subclasses of angiotensin II binding sites in rabbit adrenal gland and uterus and in the rat liver which differ in their tissue distribution and affinity for various peptide and nonpeptide ligands. Thus, the compounds of Formula I or Ia were tested for their ability to inhibit [^3 H]angiotensin II binding to rat liver membranes (AT1 test) according to the methods described by Dudley, D. T., et al, Molecular Pharmacology 1990;38:370-7. […] It is well established that compounds which antagonize the effect of angiotensin II at the AT1 receptor have value for treatment of hypertension and heart failure.

Row | SMILES | IC50 [µM]
1 | CCCCc1ncc(/C=C2\C(=O)NC(=O)N2CCC(C)C)n1Cc1ccc(C(=O)O)cc1 [Example 2a] | 0.0094
2 | CCCCc1ncc(/C=C2/C(=O)NC(=O)N2CCC(C)C)n1Cc1ccc(C(=O)O)cc1 [Example 2b] | 0.0088
3 | CCCCc1ncc(/C=C2\C(=O)NC(=O)N2C)n1Cc1ccc(C(=O)O)cc1 [Example 3a, (E)-4-[[2-Butyl-5-[(2,5-dioxo-3-methyl-4-imidazolidinylidene)methyl]-1H-imidazol-1-yl]methyl]benzoic acid] | 0.172
4 | CCCCc1ncc(/C=C2/C(=O)NC(=O)N2C)n1Cc1ccc(C(=O)O)cc1 [Example 3b, (Z)-4-[[2-Butyl-5-[(2,5-dioxo-3-methyl-4-imidazolidinylidene)methyl]-1H-imidazol-1-yl]methyl]benzoic acid] | 0.0838
5 | CCCCc1ncc(/C=C2/C(=O)NC(=O)N2Cc2ccccc2)n1Cc1ccc(C(=O)O)cc1 [Example 4b] | 0.00417
6 | CCCCc1ncc(/C=C2\C(=O)NC(=O)N2c2ccccc2)n1Cc1ccc(C(=O)O)cc1 [Example 5, (E)-4-[[2-Butyl-5-[(2,5-dioxo-3-phenyl-4-imidazol-imidazolidinylidene)methyl]-1H-imidazole-1-yl]methyl]benzoic acid] | 0.643
7 | CCCCc1ncc(/C=C2\C(=O)NC(=O)N2Cc2cccs2)n1Cc1ccc(C(=O)O)cc1 [Example 6a] | 0.00297
8 | CCCCc1ncc(/C=C2/C(=O)NC(=O)N2Cc2cccs2)n1Cc1ccc(C(=O)O)cc1 [Example 6b] | 0.00143
9 | CCCCc1ncc(/C=C2\C(=O)NC(=O)N2CCCC)n1Cc1ccc(C(=O)OC)cc1 [Example 15a, (E)-4-[[2-Butyl-5-[(3-butyl-2,5-dioxo-4-imidazolidinylidene)methyl]-1H-imidazole-1-yl]methyl]benzoic acid, methyl ester] | 0.0109
10 | CCCCc1ncc(/C=C2/C(=O)NC(=O)N2CCCC)n1Cc1ccc(C(=O)OC)cc1 [Example 15b, (Z)-4-[[2-Butyl-5-[(3-butyl-2,5-dioxo-4-imidazolidinylidene)methyl]-1H-imidazole-1-yl]methyl]benzoic acid, methyl ester] | 0.0103
11 | CCCCc1ncc(/C=C2\C(=O)NC(=O)N2Cc2cccs2)n1Cc1ccc(C(=O)OC)cc1 [Example 16a, (e)-4-[]2-Butyl-5-[[2,5-dioxo-3-((2-thienyl)methyl)-4-imidazolidinylidene[methyl]-1H-imidazole-1-yl]methyl]benzoic acid, methyl ester] | 0.00545
12 | CCCCc1ncc(/C=C2/C(=O)NC(=O)N2Cc2cccs2)n1Cc1ccc(C(=O)OC)cc1 [Example 16b, (Z)-4-[[2-Butyl-5-[[2,5-dioxo-3-((2-thienyl)methyl)-4-imidazolidinylidene]methyl]-1H-imidazole-1-yl]methyl]benzoic acid, methyl ester] | 0.00692
13 | CCCCc1ncc(/C=C2\C(=O)NC(=O)N2CCCCO)n1Cc1ccc(C(=O)OC)cc1 [Example 17a] | 0.0983
14 | CCCCc1ncc(/C=C2/C(=O)NC(=O)N2CCCCO)n1Cc1ccc(C(=O)OC)cc1 [Example 17b, (Z)-4-[[2-Butyl-5-[[2,5-dioxo-3-(4-hydroxybutyl)-4-imidazolidinylidene]methyl]-1-H-imidazole-1-yl]methyl]benzoic acid, methyl ester] | 0.0495
15 | CCCCN1C(=O)N(C)C(=O)/C1=C\c1cnc(CCC)n1Cc1ccc(C(=O)OC)cc1 [Example 18] | 0.021
16 | CCCCc1ncc(/C=C2\C(=O)NC(=O)N2Cc2ccc(Cl)cc2)n1Cc1ccc(C(=O)O)cc1 [Example 20a, E-4-[[2-butyl-5-[[3-[(4-chlorophenyl)methyl]-2,5-dioxo-4-imidazolidinylidene]methyl]-1H-imidazol-1-yl]methyl]benzoic acid] | 0.00336
17 | CCCCc1ncc(/C=C2/C(=O)NC(=O)N2Cc2ccc(Cl)cc2)n1Cc1ccc(C(=O)O)cc1 [Example 20b, Z-4-[[2-butyl-5-[[3-[(4-chlorophenyl)methyl]-2,5-dioxo-4-imidazolidinylidene]methyl]-1H-imidazol-1-yl]methyl]benzoic acid] | 0.00247

Row | SMILES | IC50 [µM]
18 | CCCCc1ncc(/C=C2\C(=O)NC(=O)N2Cc2ccc(OC)c(OC)c2)n1Cc1ccc(C(=O)O)cc1 [Example 21a] | 0.111
19 | CCCCc1ncc(/C=C2/C(=O)NC(=O)N2Cc2ccc(OC)c(OC)c2)n1Cc1ccc(C(=O)O)cc1 [Example 21b] | 0.0893
20 | CCCCc1ncc(/C=C2/C(=O)N(CCCC)C(=O)N2CCCC)n1Cc1ccc(C(=O)OC)cc1 [Example 22, Methyl Z-4-[[-2-butyl-5-[(1,3-dibutyl-2,5-dioxo-4-imidazolidinylidene)methyl]-1H -imidazol-1-yl]methyl]benzoate monohydrochloride] | 0.00167
21 | CCCCc1ncc(/C=C2/C(=O)N(CCCC)C(=O)N2Cc2cccs2)n1Cc1ccc(C(=O)OC)cc1 [Example 23, Methyl Z-4-[[2-butyl-5-[[1-butyl-2,5-dioxo-3-(2-thienylmethyl)-4-imidazolidinylidene]methyl]-1H-imidazol-1-yl]methyl]benzoate monohydrochloride] | 0.00339
22 | CCCCc1ncc(/C=C2\C(=O)N(CCCC)C(=O)N2Cc2cccs2)n1Cc1ccc(C(=O)OC)cc1 [Example 24, Methyl E-4-[[2-butyl-5-[[1-butyl-2,5-dioxo-3-(2-thienylmethyl)-4-imidazolidinylidene]methyl]-1H-imidazol-1-yl]methyl]benzoate monohydrochloride] | 0.0103
23 | CCCCc1ncc(/C=C2/C(=O)N(CCCC)C(=O)N2Cc2cccs2)n1Cc1ccc(C(=O)O)cc1 [Example 25] | 0.00639
24 | CCCCc1ncc(/C=C2\C(=O)NC(=O)N2Cc2cccs2)n1Cc1ccc(C2(C(=O)O)CCCC2)cc1 [Example 26a, E-1-[4-[[2-butyl-5-[[2,5-dioxo-3-(2-thienylmethyl)-4-imidazolidinylidene]methyl]-1H-imidazol-1-yl]methyl]phenyl]cyclopentanecarboxylic acid] | 0.00263
25 | CCCCc1ncc(/C=C2/C(=O)NC(=O)N2Cc2cccs2)n1Cc1ccc(C2(C(=O)O)CCCC2)cc1 [Example 26b, Z-1-[4-[[2-butyl-5-[[2,5-dioxo-3-(2-thienylmethyl)-4-imidazolidinylidene]methyl]-1H-imidazol-1-yl]methyl]phenyl]cyclopentanecarboxylic acid] | 0.00222
26 | CCCCc1ncc(C(O)C2C(=O)NC(=O)N2CCCC)n1Cc1ccc(C(=O)OC)cc1 (stereo not shown) [Example 29, Methyl 4-[[2-butyl-5-[(3-butyl-2,5-dioxo-4-imidazolidinyl)hydroxymethyl]-1H-imidazol-1-yl]methyl]benzoate] | > 1
27 | CCCCc1ncc(/C=C2\NC(=O)N(CCCC)C2=O)n1Cc1ccc(C(=O)OC)cc1 [Example 32a, Methyl Z-4-[[2-butyl-5-[(1-butyl-2,5-dioxo-4-imidazolidinylidene)methyl]-1H-imidazol-1-yl]methyl]benzoate monohydrochloride] | 0.178
28 | CCCCc1ncc(/C=C2/NC(=O)N(CCCC)C2=O)n1Cc1ccc(C(=O)OC)cc1 [Example 32b, Methyl E-4-[[2-butyl-5-[(1-butyl-2,5-dioxo-4-imidazolidinylidene)methyl]-1H-imidazol-1-yl]methyl]benzoate] | 1.17
29 | CCCCc1ncc(/C=C2/C(=O)N(CCCC)C(=O)N2CCCC)n1Cc1ccc(C(=O)OC)cc1 [Example 33, Methyl Z-4-[[2-butyl-5-[(1,3-dibutyl-2,5-dioxo-4-imidazolidinylidene)methyl]-1 H-imidazol-1-yl]methyl]benzoate monohydrochloride] | 0.00849
30 | CCCCCCN1C(=O)N(CCCC)C(=O)/C1=C/c1cnc(CCCC)n1Cc1ccc(C(=O)OC)cc1 [Example 35, Methyl Z-4-[[2-butyl-5-[(1-butyl-3-hexyl-2,5-dioxo-4-imidazolidinylidene)methyl]-1H-imidazol-1-yl]methyl]benzoate monohydrochloride] | 0.0402
31 | CCCCc1ncc(/C=C2/C(=O)N(CCCC)C(=O)N2Cc2ccccc2)n1Cc1ccc(C(=O)OC)cc1 [Example 36, Methyl Z-4-[[2-butyl-5-[[1-butyl-2,5-dioxo-3-(phenylmethyl)-4-imidazolidinylidene]methyl]-1H-imidazol-1-yl]methyl]benzoate monohydrochloride] | 0.0124
32 | CCCCc1ncc(/C=C2/C(=O)N(CCCC)C(=O)N2Cc2ccc(C(=O)OC)cc2)n1Cc1ccc(C(=O)OC)cc1 [Example 37, Methyl Z-4-[[2-butyl-5-[[1-butyl-3-[[4-(methoxycarbonyl)phenyl]methyl]-2,5-dioxo-4-imidazolidinylidene]methyl]-1H-imidazol-1-yl]methyl]benzoate monohydrochloride] | 0.0143
33 | CCCCc1ncc(/C=C2/C(=O)N(CCCC)C(=O)N2Cc2ccc([N+](=O)[O-])cc2)n1Cc1ccc(C(=O)OC)cc1 [Example 38, mono hydrochloride] | 0.0169
34 | CCCCc1ncc(/C=C2/C(=O)N(CCCC)C(=O)N2CCc2ccccc2)n1Cc1ccc(C(=O)OC)cc1 [Example 41, Methyl Z-4-[[2-butyl-5-[[1-butyl-2,5-dioxo-3-(2-phenylethyl)-4-imidazolidinylidene]methyl]-1H-imidazol-1-yl]methyl]benzoate mono hydrochloride] | 0.0309
